Experimental data from patent publication US20250051347A1, “BIFUNCTIONAL CHIMERIC HETEROCYCLIC COMPOUND AND USE THEREOF AS ANDROGEN RECEPTOR DEGRADER” (Hinova Pharmaceuticals, Inc., priority 2021, published 2025).

These molecules were tested against T1, androgen receptor (AR) splicing variant AR-v7 (Homo sapiens, UniProt P10275) (assay: Degradation activity on androgen receptor splicing variant AR-v7 in 22RV1 cells (ELISA)). Details: AR-v7 degradation in 22RV1 cells, 48 h, class symbols.
T1 construct: The degradation activity of compounds on AR-v7 in 22RV1 cells; host or cells: 22RV1 cells
T1 sequence (P10275 1-644 isoform P10275-3): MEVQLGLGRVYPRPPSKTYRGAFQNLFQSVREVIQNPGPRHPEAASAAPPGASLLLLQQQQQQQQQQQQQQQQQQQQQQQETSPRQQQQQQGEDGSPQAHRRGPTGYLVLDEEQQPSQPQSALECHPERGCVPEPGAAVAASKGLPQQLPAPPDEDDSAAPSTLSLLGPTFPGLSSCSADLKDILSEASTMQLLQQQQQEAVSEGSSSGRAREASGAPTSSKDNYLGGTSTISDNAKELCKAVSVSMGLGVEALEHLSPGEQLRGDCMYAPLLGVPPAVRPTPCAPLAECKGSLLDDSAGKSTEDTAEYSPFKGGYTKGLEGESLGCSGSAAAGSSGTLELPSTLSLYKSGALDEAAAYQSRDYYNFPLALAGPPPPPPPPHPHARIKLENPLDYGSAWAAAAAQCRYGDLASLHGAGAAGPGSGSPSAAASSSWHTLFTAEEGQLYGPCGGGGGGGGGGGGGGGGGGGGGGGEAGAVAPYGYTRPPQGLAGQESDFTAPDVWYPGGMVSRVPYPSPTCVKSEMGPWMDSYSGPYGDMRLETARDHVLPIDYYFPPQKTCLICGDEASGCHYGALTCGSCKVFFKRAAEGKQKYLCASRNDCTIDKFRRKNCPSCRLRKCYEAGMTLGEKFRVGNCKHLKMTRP
Type: cell-based

| DC50 [nM] | Compound |
| --- | --- |
| 1000 to 5000 | CS(=O)(=O)Nc1cc(COc2ccc(C3(c4ccc(OCCCCCCCCOCCCCNc5ccc6c(c5)C(=O)N(C5CCC(=O)NC5=O)C6=O)cc4)CCC3)cc2)ccn1 (stereo not shown) [Example 58] |
| 11 to 100 | CC(C)(c1ccc(Oc2ccc(-n3nccn3)nc2)cc1)c1ccc(O[C@H]2C[C@@H](Nc3ccc4c(c3)C(=O)N(C3CCC(=O)NC3=O)C4=O)C2)cc1 (stereo partly shown) [Example 540] |
| 11 to 100 | CC(C)(c1ccc(Oc2cncc(N3CC4(COC4)C3)n2)cc1)c1ccc(O[C@H]2C[C@@H](Nc3ccc4c(c3)C(=O)N(C3CCC(=O)NC3=O)C4=O)C2)cc1 (stereo partly shown) [Example 159] |
| 11 to 100 | CC(C)(c1ccc(Oc2nc(-n3nccn3)ccc2F)cc1)c1ccc(O[C@H]2C[C@H](Nc3ccc4c(c3)C(=O)N(C3CCC(=O)NC3=O)C4=O)C2)cc1 (stereo partly shown) [Example 320] |
| 101 to 1000 | CC(C)(c1ccc(OCCCNc2ccc3c(c2)C(=O)N(C2CCC(=O)NC2=O)C3=O)cc1)c1ccc(OCc2nc(C(=O)N3CCCC3)no2)cc1 (stereo not shown) [Example 140, 2-(2,6-dioxopiperidin-3-yl)-5-((3-(4-(2-(4-((3-(pyrrolidin-1-carbonyl)-1,2,4-oxadiazol-5-yl)methoxy)phenyl)propan-2-yl)phenoxy)propyl)amino)isoindolin-1,3-dione] |
| 11 to 100 | CC(C)(c1ccc(OCCCNc2ccc3c(c2)C(=O)N(C2CCC(=O)NC2=O)C3=O)cc1)c1ccc(OCc2nc(C(N)=O)co2)cc1 (stereo not shown) [Example 388] |
| 11 to 100 | CC(C)(c1ccc(OCc2nc(N3CC4(COC4)C3)ncc2Cl)cc1)c1ccc(O[C@H]2C[C@@H](Nc3ccc4c(c3)C(=O)N(C3CCC(=O)NC3=O)C4=O)C2)cc1 (stereo partly shown) [Example 201, 5-((1s,3s)-3-(4-(2-(4-((5-chloro-2-(2-oxa-6-azaspiro[3.3]heptan-6-yl)pyrimidin-4-methoxy)phenyl)propan-2-yl)phenoxy)cyclobutyl)amino)-2-(2,6-dioxopiperidin-3-yl)isoindolin-1,3-dione] |
| 11 to 100 | CC(C)(c1ccc(Oc2cnc(N3CC4(COC4)C3)cn2)cc1)c1ccc(O[C@H]2C[C@H](Nc3ccc4c(c3)C(=O)N(C3CCC(=O)NC3=O)C4=O)C2)cc1 (stereo partly shown) [Example 573] |
| 11 to 100 | Cc1nnc(-c2ncc(Oc3ccc(C(C)(C)c4ccc(O[C@H]5C[C@@H](Nc6ccc7c(c6)C(=O)N(C6CCC(=O)NC6=O)C7=O)C5)cc4)cc3)cn2)o1 (stereo partly shown) [Example 484] |
| 1000 to 5000 | CC(O)c1nccc(COc2ccc(C(C)(C)c3ccc(OCCCNc4cccc5c4C(=O)N(C4CCC(=O)NC4=O)C5=O)cc3)cc2)n1 (stereo not shown) [Example 346, 2-(2,6-dioxopiperidin-3-yl)-4-((3-(4-(2-(4-((2-(1-hydroxylethyl)pyrimidin-4-yl)methoxy)phenyl)isopropan-2-yl)phenoxy)propyl)amino)isoindolin-1,3-dione] |
| 11 to 100 | Cc1nc(-c2ncc(Oc3ccc(C(C)(C)c4ccc(O[C@H]5C[C@H](Nc6ccc7c(c6)C(=O)N(C6CCC(=O)NC6=O)C7=O)C5)cc4)cc3)cc2F)no1 (stereo partly shown) [Example 511] |
| 11 to 100 | Cc1nc(-c2ccc(Oc3ccc(C(C)(C)c4ccc(O[C@H]5C[C@@H](Nc6ccc7c(c6)C(=O)N(C6CCC(=O)NC6=O)C7=O)C5)cc4)cc3)cn2)no1 (stereo partly shown) [Example 587] |
| 11 to 100 | CC(C)(c1ccc(OCC(=O)Nc2ccc3c(c2)C(=O)N(C2CCC(=O)NC2=O)C3=O)cc1)c1ccc(OCc2ccnc(N3CC4(COC4)C3)n2)cc1 (stereo not shown) [Example 568] |
| 11 to 100 | Cc1nc(-c2cncc(Oc3ccc(C(C)(C)c4ccc(O[C@H]5C[C@H](Nc6ccc7c(c6)C(=O)N(C6CCC(=O)NC6=O)C7=O)C5)cc4)cc3)n2)no1 (stereo partly shown) [Example 585] |
| 11 to 100 | CC(C)(c1ccc(Oc2ccnc(-n3ccnn3)c2)cc1)c1ccc(O[C@H]2C[C@H](Nc3ccc4c(c3)C(=O)N(C3CCC(=O)NC3=O)C4=O)C2)cc1 (stereo partly shown) [Example 163, 5-((1r,3r)-3-(4-(2-(2-(4-((1H-1,2,3-triazol-2-yl)pyridin-4-yl)oxy)phenyl)propan-2-ylphenoxy)cyclobutyl)amino)-2-(2,6-dioxopiperidin-3-yl)isoindolin-1,3-dione] |
| 1000 to 5000 | CC(C)(c1ccc(OCCCN2CCN(CC3CCN(CC4CN(c5ccc6c(c5)C(=O)N(C5CCC(=O)NC5=O)C6=O)C4)CC3)CC2)cc1)c1ccc(OCc2ccnc(NS(C)(=O)=O)n2)cc1 (stereo not shown) [Example 11, N-(4-((4-(2-(4-(3-(4-((1-((1-(2-(2,6-dioxopiperidin-3-yl)-1,3-dioxoisoindolin-5-yl)azetidin-3-yl)methyl)piperidin-4-yl)methyl)piperazin-1-yl)propoxy)phenyl)propan-2-yl)phenoxy)methyl)pyrimidin-2-yl)methanesulfonamide] |
| 101 to 1000 | CC(C)(c1ccc(OCc2ccnc(N3CC4(COC4)C3)n2)cc1)c1ccc(O[C@H]2CC[C@@H](Nc3ccc4c(c3)C(=O)N(C3CCC(=O)NC3=O)C4=O)CC2)cc1 (stereo partly shown) [Example 153, 5-(((1s,4s)-4-(4-(2-(4-((2-(2-oxa-6-azaspiro[3.3]heptan-6-yl)pyrimidin-4-yl)methoxy)phenyl)propan-2-yl)phenoxy)cyclohexyl)amino)-2-(2,6-dioxopyridin-3-yl)isoindolin-1,3-dione] |
| 11 to 100 | CC(C)(c1ccc(C#CCNc2ccc3c(c2)C(=O)N(C2CCC(=O)NC2=O)C3=O)cc1)c1ccc(OCc2ccnc(N3CC4(COC4)C3)n2)cc1 (stereo not shown) [Example 309, 5-((3-(4-(2-(4-((2-(2-oxa-6-azaspiro[3.3]heptan-6-yl)pyrimidin-4-yl)methoxy)phenyl)propan-2-yl)phenyl)prop-2-yn-1-yl)amino)-2-(2,6-dioxopiperidin-3-yl)isoindolin-1,3-dione] |

Same assay, conditions: AR-v7 degradation in 22RV1 cells, 48 h, numeric values

| DC50 [nM] | Compound |
| --- | --- |
| > 2500 | CC(=O)c1nccc(COc2ccc(C(C)(C)c3ccc(OCC4CCCN(c5ccc6c(c5)C(=O)N(C5CCC(=O)NC5=O)C6=O)C4)cc3)cc2)n1 (stereo not shown) [Example 304, 5-(3-((4-(2-(4-((2-acetylpyrimidin-4-yl)methoxy)phenyl)propan-2-yl)phenoxy)methyl)piperidin-1-yl)-2-(2,6-dioxopiperidin-3-yl)isoindolin-1,3-dione] |
| > 10000 | CC(=O)c1nccc(COc2ccc(C(C)(C)c3ccc(OCCCCCNc4ccc5c(c4)C(=O)N(C4CCC(=O)NC4=O)C5=O)cc3)cc2)n1 (stereo not shown) [Example 342, 5-((5-(4-(2-(4-((2-acetylpyrimidin-4-yl)methoxy)phenyl)isopropan-2-yl)phenoxy)pentyl)amino)-2-(2,6-dioxopiperidin-3-yl)isoindolin-1,3-dione] |
| ≥ 10000 | CC(=O)c1nccc(COc2ccc(C(C)(C)c3ccc(OCC4CCN(c5ccc6c(c5)C(=O)N(C5CCC(=O)NC5=O)C6=O)C4)cc3)cc2)n1 (stereo not shown) [Example 302, 5-(3-((4-(2-(4-((2-acetylpyrimidin-4-yl)methoxy)phenyl)propan-2-yl)phenoxy)methyl)pyrrolidin-1-yl)-2-(2,6-dioxopiperidin-3-yl)isoindolin-1,3-dione] |
| > 10000 | CC(=O)c1nccc(COc2ccc(C(C)(C)c3ccc(OCC4CCN(c5cccc6c5C(=O)N(C5CCC(=O)NC5=O)C6=O)C4)cc3)cc2)n1 (stereo not shown) [Example 301, 4-(3-((4-(2-(4-((2-acetylpyrimidin-4-yl)methoxy)phenyl)propan-2-yl)phenoxy)methyl)pyrrolidin-1-yl)-2-(2,6-dioxopiperidin-3-yl)isoindolin-1,3-dione] |
